According to patent US9060515B2, “Heterocyclic urea compounds” (BIOTA EUROPE LTD, priority 2011, dated 2015):
≈ marks a conversion by molar mass, not a printed value. Like-named read-outs stand apart in the source and are kept apart here.

Key:
Assay type in all cases: cell-based
[1] = tested on: H. influenzae (ATCC 49247); test: Antibacterial susceptibility testing (MIC, broth microdilution or agar dilution), H. influenzae; settings: Haemophilus influenzae, ATCC49247; read-out: H. influenzae (ATCC 49247) minimal inhibitory concentration (MIC)
Description: (§1) Compounds of the invention were tested for antimicrobial activity by susceptibility testing in liquid or on solid media. MICs for compounds against each strain were determined by the broth microdilution or agar dilution method according to the guidelines of the Clinical Laboratories and Standards Institute, formerly the National Committee for Clinical Laboratory Standards (Clinical Laboratories and Standards Institute. Methods for Dilution Antimicrobial Susceptibility Tests for Bacteria That Grow Aerobically; Approved Standard—Seventh Edition. Document M7-A7. CLSI, Wayne, Pa., 2006; Clinical Laboratories and Standards Institute. The Gram positive bacterial strains tested include S. aureus (Staphylococcus aureus (Isolate ID ATCC 29213)), E. faecalis (Enterococcus faecalis (Isolate ID ATCC 29212)) and S. pyogenes (Streptococcus pyogenes (Isolate ID ATCC 51339)). The Gram negative bacterial strains tested include H. influenzae (Haemophilus influenzae (Isolate ID ATCC 49247)).

S. aureus (ATCC 29213) = test: Antibacterial susceptibility testing (MIC, broth microdilution or agar dilution), S. aureus
How it was run: (§2)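 MICs by CLSI (M7-A7) broth microdilution or agar dilution, against reference ATCC strains as listed.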

E. faecalis (ATCC 29212) = test: Antibacterial susceptibility testing (MIC, broth microdilution or agar dilution), E. faecalis
Description: as §1

S. pyogenes (ATCC 51339) = test: Antibacterial susceptibility testing (MIC, broth microdilution or agar dilution), S. pyogenes; settings: Streptococcus pyogenes, ATCC51339; read-out: S. pyogenes (ATCC 51339) minimal inhibitory concentration (MIC)
How it was run: as §2

[2] = Staphylococcus aureus, ATCC29213; read-out: S. aureus (ATCC 29213) minimal inhibitory concentration (MIC)
[3] = Enterococcus faecalis, ATCC29212; read-out: E. faecalis (ATCC 29212) minimal inhibitory concentration (MIC)

MIC [1] [µg/mL]	MIC (S. aureus (ATCC 29213); [2]) [µg/mL]	MIC (E. faecalis (ATCC 29212); [3]) [µg/mL]	MIC (S. pyogenes (ATCC 51339)) [µg/mL]	Compound	MIC (E. faecalis (ATCC 29212); Enterococcus faecalis, ATCC29212, read-out: E. faecalis (ATCC 29212) minimal inhibitory concentration (MIC)) [µg/mL]	MIC (S. aureus (ATCC 29213); Staphylococcus aureus, ATCC29213, read-out: S. aureus (ATCC 29213) minimal inhibitory concentration (MIC)) [µg/mL]
8 (≈ 15.8 µM)	≤ 1			CCNC(=O)Nc1cc(Nc2cc(F)cc(F)c2)c(C(=O)Nc2ccc(CCc3nnn[nH]3)cc2)cn1 [Compound 161, 4-(3,5-difluoroanilino)-6-(ethylcarbamoylamino)-N-[4-[2-(1H-tetrazol-5-yl)ethyl]phenyl]pyridine-3-carboxamide]		
8 (≈ 15.7 µM)	≤ 1			CCNC(=O)Nc1cc(Nc2ccc(Cl)cc2)c(C(=O)Nc2ccc(CC(C)(C)C(=O)O)cc2)cn1 [Compound 160, 3-{4-[({4-[(4-chlorophenyl)amino]-6-[(ethylcarbamoyl)amino]pyridin-3-yl}carbonyl)amino]phenyl}-2,2-dimethylpropanoic acid]		
4 (≈ 7.64 µM)	≤ 1			CCNC(=O)Nc1cc(Nc2ccc(F)c(OC)c2)c(C(=O)Nc2ccc(CC(C)(C)C(=O)O)cc2)cn1 [Compound 184, 3-{4-[({6-[(ethylcarbamoyl)amino]-4-[(4-fluoro-3-methoxyphenyl)amino]pyridin-3-yl}carbonyl)amino]phenyl}-2,2-dimethylpropanoic acid]		
	2 (≈ 4.96 µM)	≤ 1	16 (≈ 39.7 µM)	CCNC(=O)Nc1cc(Nc2cccc(C)c2)c(C(=O)Nc2cccc(C)c2)cn1 [Compound 1, 6-(3-ethylureido)-N-m-tolyl-4-(m-tolylamino)nicotinamide]		
4 (≈ 7.91 µM)	≤ 1			CCNC(=O)Nc1cc(Nc2cccc(OC)c2)c(C(=O)Nc2ccc(CC(C)(C)C(=O)O)cc2)cn1 [Compound 178, 3-{4-[({6-[(ethylcarbamoyl)amino]-4-[(3-methoxyphenyl)amino]pyridin-3-yl}carbonyl)amino]phenyl}-2,2-dimethylpropanoic acid]		
	≤ 1	≤ 1	4 (≈ 9.76 µM)	CCNC(=O)Nc1cc(Nc2ccccc2)c(C(=O)Nc2cccc(Cl)c2)cn1 [Compound 4]		
8 (≈ 19.6 µM)	≤ 1			CCNC(=O)Nc1cc(Nc2ccnc(OC)c2)c(C(=O)Nc2cccnc2)cn1 [Compound 163]		
8 (≈ 19.7 µM)	4 (≈ 9.84 µM)			CCNC(=O)Nc1cc(Nc2ccccc2)c(C(=O)Nc2ccn(C)c(=O)c2)cn1 [Compound 134, 6-[(Ethylcarbamoyl)amino]-N-(1-methyl-2-oxo-1,2-dihydropyridin-4-yl)-4-(phenylamino)pyridine-3-carboxamide]		
4 (≈ 8.1 µM)	≤ 1			CCNC(=O)Nc1cc(Nc2ccccc2F)c(C(=O)Nc2ccc(CC(C)(C)C(=O)O)cc2)cn1 [Compound 182, 3-{4-[({6-[(ethylcarbamoyl)amino]-4-[(2-fluorophenyl)amino]pyridin-3-yl}carbonyl)amino]phenyl}-2,2-dimethylpropanoic acid]		
4 (≈ 8.39 µM)	4 (≈ 8.39 µM)			CCNC(=O)Nc1cc(Nc2cccnc2)c(C(=O)Nc2ccc(CC(C)(C)C(=O)O)cc2)cn1 [Compound 171, 3-{4-[({6-[(ethylcarbamoyl)amino]-4-(pyridin-3-ylamino)pyridin-3-yl}carbonyl)amino]phenyl}-2,2-dimethylpropanoic acid]		
4 (≈ 8.98 µM)	2 (≈ 4.49 µM)			CCNC(=O)Nc1cc(Nc2ccccc2)c(C(=O)Nc2ccc(/C=C/C(=O)O)cc2)cn1 [Compound 137, (2E)-3-{4-[({6-[(ethylcarbamoyl)amino]-4-(phenylamino)pyridin-3-yl}carbonyl)amino]phenyl}prop-2-enoic acid]		
4 (≈ 8.1 µM)	≤ 1			CCNC(=O)Nc1cc(Nc2ccc(F)cc2)c(C(=O)Nc2ccc(CC(C)(C)C(=O)O)cc2)cn1 [Compound 175, 3-{4-[({6-[(ethylcarbamoyl)amino]-4-[(4-fluorophenyl)amino]pyridin-3-yl}carbonyl)amino]phenyl}-2,2-dimethylpropanoic acid]		
2 (≈ 4.1 µM)				CCNC(=O)Nc1cc(Nc2ccccc2)c(C(=O)Nc2ccc([C@@H]3C[C@H]3C(=O)OCC)cc2)cn1 [Compound 180]		
		2 (≈ 5.12 µM)	8 (≈ 20.5 µM)	CCNC(=O)Nc1cc(NCc2cccnc2)c(C(=O)Nc2ccccc2)cn1 [Compound 25, 6-(3-ethylureido)-N-phenyl-4-(pyridin-3-ylmethylamino)nicotinamide]		
	≤ 1	≤ 1	2 (≈ 5.33 µM)	CCNC(=O)Nc1cc(Nc2ccccc2)c(C(=O)Nc2ccccc2)cn1 [Compound 17, 6-(3-ethylureido)-N-phenyl-4-(phenylamino)nicotinamide]		
	2 (≈ 4.33 µM)	≤ 1	≤ 1	CCNC(=O)Nc1cc(Nc2ccccc2)c(C(=O)Nc2ccc(N3CCOCC3)nc2)cn1 [Compound 23, 6-(3-ethylureido)-N-(6-morpholinopyridin-3-yl)-4-(phenylamino)nicotinamide]		

MIC [1] [µg/mL]	MIC (S. aureus (ATCC 29213); [2]) [µg/mL]	MIC (E. faecalis (ATCC 29212); [3]) [µg/mL]	MIC (S. pyogenes (ATCC 51339)) [µg/mL]	Compound	MIC (E. faecalis (ATCC 29212); Enterococcus faecalis, ATCC29212, read-out: E. faecalis (ATCC 29212) minimal inhibitory concentration (MIC)) [µg/mL]	MIC (S. aureus (ATCC 29213); Staphylococcus aureus, ATCC29213, read-out: S. aureus (ATCC 29213) minimal inhibitory concentration (MIC)) [µg/mL]
	2 (≈ 4.61 µM)	≤ 1	≤ 1	CCNC(=O)Nc1cc(Nc2ccccc2)c(C(=O)Nc2ccc(NC(C)=O)nc2)cn1 [Compound 24, N-(6-acetamidopyridin-3-yl)-6-(3-ethylureido)-4-(phenylamino)nicotinamide]		
	≤ 1	≤ 1	2 (≈ 5.14 µM)	CCNC(=O)Nc1cc(Nc2ccccc2)c(C(=O)Nc2cccc(C)c2)cn1 [Compound 18, 6-(3-ethylureido)-4-(phenylamino)-N-m-tolylnicotinamide]		
	≤ 1	≤ 1		CCNC(=O)Nc1cc(Nc2ccc(F)c(F)c2)c(C(=O)Nc2ccc(CCC(=O)OCC)cc2)cn1 [Compound 215, ethyl 3-{4-[({4-[(3,4-difluorophenyl)amino]-6-[(ethylcarbamoyl)amino]pyridin-3-yl}carbonyl)amino]phenyl}propanoate]		
	≤ 1	≤ 1	≤ 1	CCNC(=O)Nc1cc(Nc2cccnc2)c(C(=O)Nc2ccccc2)cn1 [Compound 13, 6-(3-ethylureido)-N-phenyl-4-(pyridin-3-ylamino)nicotinamide]		
	8 (≈ 21.2 µM)	≤ 1	≤ 1	CCNC(=O)Nc1cc(Nc2cccnc2)c(C(=O)Nc2cccnc2)cn1 [Compound 19, 6-(3-ethylureido)-N-(pyridin-3-yl)-4-(pyridin-3-ylamino)nicotinamide]		
	4 (≈ 7.35 µM)	≤ 1		CCNC(=O)Nc1cc(Nc2cc(Cl)cc(Cl)c2)c(C(=O)Nc2ccc(CCC(=O)OCC)cc2)cn1 [Compound 225, ethyl 3-{4-[({4-[(3,5-dichlorophenyl)amino]-6-[(ethylcarbamoyl)amino]pyridin-3-yl}carbonyl)amino]phenyl}propanoate]		
				CCNC(=O)Nc1cc(Nc2ccccc2)c(C(=O)Nc2ccc(CP(=O)(OCC)OCC)cc2)cn1 [Compound 206]	≤ 1	≤ 1
	≤ 1	≤ 1	≤ 1	CCNC(=O)Nc1cc(Nc2ccccc2)c(C(=O)Nc2cccnc2)cn1 [Compound 20, 6-(3-ethylureido)-4-(phenylamino)-N-(pyridin-3-yl)nicotinamide]		
	2 (≈ 3.9 µM)	≤ 1		CCNC(=O)Nc1cc(Nc2ccc(C#N)cc2)c(C(=O)Nc2ccc(CN3CCN(C)CC3)cc2)cn1 [Compound 205, 4-[(4-cyanophenyl)amino]-6-[(ethylcarbamoyl)amino]-N-{4-[(4-methylpiperazin-1-yl)methyl]phenyl}pyridine-3-carboxamide]		
	8 (≈ 15.8 µM)	2 (≈ 3.96 µM)		CCNC(=O)Nc1cc(Nc2ccc(F)cc2)c(C(=O)Nc2ccc(CN3CCN(C)CC3)cc2)cn1 [Compound 202, 6-[(ethylcarbamoyl)amino]-4-[(4-fluorophenyl)amino]-N-{4-[(4-methylpiperazin-1-yl)methyl]phenyl}pyridine-3-carboxamide]		
	2 (≈ 4.06 µM)	≤ 1		CCNC(=O)Nc1cc(Nc2ccc(F)cc2)c(C(=O)Nc2ccc(CN3CCOCC3)cc2)cn1 [Compound 201, 6-[(ethylcarbamoyl)amino]-4-[(4-fluorophenyl)amino]-N-[4-(morpholin-4-ylmethyl)phenyl]pyridine-3-carboxamide]		
	2 (≈ 3.79 µM)	≤ 1		CCNC(=O)Nc1cc(Nc2ccc(F)c(Cl)c2)c(C(=O)Nc2ccc(CCC(=O)OCC)cc2)cn1 [Compound 226, ethyl 3-{4-[({4-[(3-chloro-4-fluorophenyl)amino]-6-[(ethylcarbamoyl)amino]pyridin-3-yl}carbonyl)amino]phenyl}propanoate]		
	4 (≈ 7.65 µM)	≤ 1		CCNC(=O)Nc1cc(Nc2ccccc2)c(C(=O)Nc2ccc(CN3CCS(=O)(=O)CC3)cc2)cn1 [Compound 214, N-{4-[(1,1-dioxidothiomorpholin-4-yl)methyl]phenyl}-6-[(ethylcarbamoyl)amino]-4-(phenylamino)pyridine-3-carboxamide]		
		8 (≈ 20.4 µM)	8 (≈ 20.4 µM)	CCNC(=O)Nc1cc(NCc2cccnc2)c(C(=O)Nc2cccnc2)cn1 [Compound 26, 6-(3-ethylureido)-N-(pyridin-3-yl)-4-(pyridin-3-ylmethylamino)nicotinamide]		
		≤ 1	≤ 1	CCNC(=O)Nc1cc(Nc2ccccc2)c(C(=O)NCc2cccnc2)cn1 [Compound 28, 6-(3-ethylureido)-4-(phenylamino)-N-(pyridin-3-ylmethyl)nicotinamide]		
